Results as given in US20220306623A1, “PYRIDYL OR PYRIMIDYL MTOR KINASE INHIBITORS” (GLAXOSMITHKLINE INTELLECTUAL PROPERTY DEVELOPMENT LIMITED, priority 2019, published 2022).
Like-named read-outs stand apart in the source and are kept apart here.

Test system: type I collagen deposition in primary lung fibroblasts derived from human tissue
Assay: High throughput type I collagen deposition (scar-in-a-jar) high content screening assay
Assay type: cell-based
Conditions: Primary lung fibroblast, 72 h, human pulmonary fibroblasts, 384-well, TGF-β 1 ng/ml 72 h
Procedure: Highthroughput, cellular type I collagen deposition was measured by adapting a published method; scar-in-a-jar (Chen et al., 2009) to primary lung fibroblasts derived from human tissue and combining with high content analysis to permit fluorescent quantification of collagen deposited in the extracellular matrix (ECM). The human biological samples were sourced ethically and their research use was in accordance with the terms of the informed consents.
Test compounds were dissolved in 100% DMSO to give 10 mM (stocks) and further diluted to give half log dilutions to generate an 11 point concentration response curve. 1 ul was transferred to 384-well plates (Greiner Group, Kremsmunster, Austria, Catalogue No Greine 781280r).
Human pulmonary fibroblasts were maintained in DMEM media (Gibco, Catalogue No 21969) supplemented with 4 mM L-glutamine (Gibco Catalogue No 25030-024) and 10% heat inactivated FBS (Gibco, Catalogue No 10099-141) at 37° C. in 10% CO2. Cells were harvested and resuspended at 4×10^6 cells/ml in a T175 cell culture flask (BD Falcom, Catalogue No: 353112) containing 50 mL of culture media. After 4 days 37° C. in 10% CO2, cells were harvested and seeded at 4000 cells per well ([…]) into 384-well plates (BD Falcon, Catalogue No 353962Greiner) in assay media (0.4% heat inactivated FBS, 4 mM L-glutamine). Plates were sealed with breathable seals (Sigma, Catalogue No. BEM-1). Assay plates were incubated for 72 h at 37° C. in 10% CO2.
Assay media was supplemented with 112.5 mg/ml Ficoll 70 (Sigma, Catalogue No F2878), 75 mg/ml Ficoll 400 (Sigma, Catalogue No F4375) and 50 µg/ml ascorbic acid (Sigma, Catalogue No A8960). 30 μL assay media were added to 1 l compound ([…] compound concentration in 1% DMSO). Diluted compounds (10 μL) were transferred to plates containing cells and incubated for 3 h at 37° C. in 10% CO2. Transforming growth factor (TGF)-β (R&D systems, Catalogue No 100-B/CF) was reconstituted to give 10 µg/mL (stock) and further diluted in assay media containing Ficoll and ascorbic acid (1 in 3333). TGF-β was added to cell plates (1 ng/ml final) and cells incubated for 72 h at 37° C. in 10% CO2.
Media was aspirated from cells and 30 µL/well 100% ice-cold methanol added and incubated at RT for 5 min to fix cells. Methanol was aspirated and cells washed with PBS (3×). To block and permeabilise, cells were incubated with PBS containing 1% BSA and 0.1% Triton X 100 for 20 min, followed by PBS wash (3×). Cells were incubated with mouse anti human type I collagen monoclonal antibody (Sigma, Catalogue No C2456) diluted 1:1000 in PBS for 24 h at 4° C. Cells were washed with PBS containing 0.1% Tween-20 (3×) and incubated with secondary alexa fluor 488 goat-anti-mouse antibody (Invitrogen, Catalogue No A11001, 1 in 500 in PBS) and Hoechst 33342 (Sigma, Catalogue No H21492), 1 in 1000 in PBS) for 1 h at RT, prior to washing with PBS containing 0.1% Tween (×4).
Type I collagen immunoreactivity was detected using the INCell 2000 Analyzer (GE Healthcare, INcell 2000) set to excitation and emission wavelengths for DAPI and FITC with laser focus and exposure adjusted to appropriate levels. Images were imported and analysed using Columbus software (Perkin Elmer) and computational algorithms to quantify “total collagen area” and “cell count”.
Data analysis was performed by determining 0/inhibition values for test compounds relative to the minimum (media only) and maximum responses (TGF-βstimulation) with non-linear regression analysis to determine IC50 values for test compounds.

[1] = selected compounds, read-out: Scar in a jar (mean pIC50 values when tested in the scar-in-a-jar assay) (converted)
[2] = total collagen area, read-out: mean pIC50, high throughput type I collagen deposition (scar-in-a-jar) (converted)

Question: How did the IC50 [1] turn out when `CC[C@H]1COCC(=O)N1c1cc(CS(C)(=O)=O)nc(-c2ccc3[nH]c(C)cc3n2)n1` [Example 14, (5S)-5-ethyl-4-[6-(methanesulfonylmethyl)-2-{2-methyl-1H-pyrrolo[3,2-b]pyridin-5-yl}pyrimidin-4-yl]morpholin-3-one] was run?
Answer: 25.1 nM

Question: What about the IC50 [2] of the same molecule?
Answer: 20 to 3160 nM

Question: For `CC[C@H]1COCCN1c1cc(CS(N)(=O)=O)nc(-c2ccc3[nH]c(CNC)cc3n2)n1` [Example 6, {6-[(3S)-3-ethylmorpholin-4-yl]-2-{2-[(methylamino)methyl]-1H-pyrrolo[3,2-b]pyridin-5-yl}pyrimidin-4-yl}methanesulfonamide], which IC50 [2] is on record?
Answer: 20 to 3160 nM

Question: How did the IC50 [1] turn out when `CC[C@H]1COCC(=O)N1c1cc(CS(C)(=O)=O)cc(-c2ccc3[nH]c(C)cc3n2)n1` [Example 24, (S)-5-ethyl-4-(6-(2-methyl-1H-pyrrolo[3,2-b]pyridin-5-yl)-4-((methylsulfonyl)methyl)pyridin-2-yl)morpholin-3-one] was run?
Answer: 126 nM

Question: What about the IC50 [2] of the same molecule?
Answer: 20 to 3160 nM

Question: `CC[C@H]1COCCN1c1cc(CS(=O)(=O)N(C)C)nc(-c2ccc3[nH]c(CO)cc3n2)n1` [Example 9, 1-{6-[(3S)-3-ethylmorpholin-4-yl]-2-[2-(hydroxymethyl)-1H-pyrrolo[3,2-b]pyridin-5-yl]pyrimidin-4-yl}-N,N-dimethylmethanesulfonamide] was tested. Which IC50 [2] did it give?
Answer: 20 to 3160 nM

Question: `CC[C@H]1COCCN1c1cc(C2(S(C)(=O)=O)CCOCC2)nc(-c2ccc3[nH]c(C)cc3n2)n1` [Example 13, (3S)-3-ethyl-4-[6-(4-methanesulfonyloxan-4-yl)-2-{2-methyl-1H-pyrrolo[3,2-b]pyridin-5-yl}pyrimidin-4-yl]morpholine] was tested. Which IC50 [2] did it give?
Answer: 20 to 3160 nM

Question: Which IC50 [2] does the source give for `CC[C@H]1COCC(=O)N1c1cc(CS(C)(=O)=O)cc(-c2ccc3[nH]c(CO)cc3n2)n1` [Example 27] here?
Answer: 20 to 3160 nM

Question: Which IC50 [2] does the source give for `CC[C@H]1COCC(=O)N1c1cc(C2(S(C)(=O)=O)CCOCC2)cc(-c2ccc3[nH]c(CO)cc3n2)n1` [Example 26] here?
Answer: 20 to 3160 nM

Question: With `CC[C@H]1COCCN1c1cc(CS(C)(=O)=O)nc(-c2ccc3[nH]c(CO)cc3n2)n1` [Example 2, (S)-(5-(4-(3-ethylmorpholino)-6-((methylsulfonyl)methyl)pyrimidin-2-yl)-1H-pyrrolo[3,2-b]pyridin-2-yl)methanol] as the molecule, how does the IC50 [2] read?
Answer: 20 to 3160 nM

Question: `CC[C@H]1COCC(=O)N1c1cc(C2(S(C)(=O)=O)CCOCC2)cc(-c2ccc3[nH]c(C)cc3n2)n1` [Example 25, (S)-5-ethyl-4-(6-(2-methyl-1H-pyrrolo[3,2-b]pyridin-5-yl)-4-(4-(methylsulfonyl)tetrahydro-2H-pyran-4-yl)pyridin-2-yl)morpholin-3-one] was tested. Which IC50 [2] did it give?
Answer: 20 to 3160 nM

Question: How did the IC50 [1] turn out when `CC[C@H]1COCCN1c1cc(C2(S(C)(=O)=O)CCNCC2)cc(-c2ccc3[nH]c(C)cc3n2)n1` [Example 18, (S)-3-ethyl-4-(6-(2-methyl-1H-pyrrolo[3,2-b]pyridin-5-yl)-4-(4-(methylsulfonyl)piperidin-4-yl)pyridin-2-yl)morpholine] was run?
Answer: 158 nM

Question: And the IC50 [2]?
Answer: 20 to 316 nM

Question: `CCc1cc2nc(-c3nc(CS(C)(=O)=O)cc(N4C(=O)COC[C@@H]4CC)n3)ccc2[nH]1` [Example 15, (5S)-5-ethyl-4-(2-{2-ethyl-1H-pyrrolo[3,2-b]pyridin-5-yl}-6-(methanesulfonylmethyl)pyrimidin-4-yl)morpholin-3-one] was tested. Which IC50 [1] did it give?
Answer: 158 nM

Question: And the IC50 [2]?
Answer: 20 to 3160 nM

Question: Which IC50 [2] does the source give for `CNCc1cc2nc(-c3cc(CS(C)(=O)=O)cc(N4CCO[C@H](C)[C@H]4C)n3)ccc2[nH]1` [Example 8, 1-(5-(6-((2R,3R)-2,3-dimethylmorpholino)-4-((methylsulfonyl)methyl)pyridin-2-yl)-1Hpyrrolo[3,2-b]pyridin-2-yl)-Nmethylmethanamine] here?
Answer: 20 to 3160 nM

Question: How did the IC50 [2] turn out when `CC[C@H]1COCCN1c1cc(C2(S(C)(=O)=O)CCOCC2)nc(-c2ccc3[nH]c(CO)cc3n2)n1` [Example 4, (5-{4-[(3S)-3-ethylmorpholin-4-yl]-6-(4-methanesulfonyloxan-4-yl)pyrimidin-2-yl}-1H-pyrrolo[3,2-b]pyridin-2-yl)methanol] was run?
Answer: 20 to 3160 nM

Question: What does the source list for `CC[C@H]1COCCN1c1cc(CS(=O)(=O)N(C)C)nc(-c2ccc3[nH]c(CNC)cc3n2)n1` [Example 16, 1-{6-[(3S)-3-ethylmorpholin-4-yl]-2-{2-[(methylamino)methyl]-1H-pyrrolo[3,2-b]pyridin-5-yl}pyrimidin-4-yl}-N,N-dimethylmethanesulfonamide]?
Answer: IC50 [1]: 100 nM; IC50 [2]: 20 to 3160 nM

Question: `CC[C@H]1COCCN1c1cc(CS(C)(=O)=O)nc(-c2ccc3[nH]c(CNC)cc3n2)n1` [Example 1, [(5-{4-[(3S)-3-ethylmorpholin-4-yl]-6-(methanesulfonylmethyl)pyrimidin-2-yl}-1H-pyrrolo[3,2-b]pyridin-2-yl)methyl](methyl)amine] was tested. Which IC50 [1] did it give?
Answer: 251 nM

Question: What about the IC50 [2] of the same molecule?
Answer: 20 to 3160 nM

Question: How did the IC50 [2] turn out when `CC[C@H]1COCCN1c1cc(CS(N)(=O)=O)cc(-c2ccc3[nH]c(C)cc3n2)n1` [Example 23, (S)-(2-(3-ethylmorpholino)-6-(2-methyl-1H-pyrrolo[3,2-b]pyridin-5-yl)pyridin-4-yl)methanesulfonamide] was run?
Answer: 20 to 3160 nM

Question: Which IC50 [2] does the source give for `CC[C@H]1COCCN1c1cc(CS(=O)(=O)NC)nc(-c2ccc3[nH]c(CO)cc3n2)n1` [Example 10, 1-{6-[(3S)-3-ethylmorpholin-4-yl]-2-[2-(hydroxymethyl)-1H-pyrrolo[3,2-b]pyridin-5-yl]pyrimidin-4-yl}-N-methylmethanesulfonamide] here?
Answer: 20 to 3160 nM
